Values of other authors in PMC9014651 (Bioorganic Chemistry, 2022).

Tested on: coronavirus variants (B.1.1.7 and B.1.351)
Conditions: cited from earlier work

Cc1ccc(NC(=O)c2ccc(CN3CCN(C)CC3)cc2)cc1Nc1nc(-c2cccnc2)cs1 [Masitinib]
Effect on tested coronavirus variants in vitro: effective
